# Where a name gives a salt, the structure may show the parent alone.
# Experiments:
# [1] = tested on: muscle progenitors (hMP) from DMD hiPSC or WT hiPSC; experiment: Myotube assay: myogenic activity (total myotube area per well); type: cell-based, human; details: Homo sapiens, 72 h, myotube assay, compounds incubated 3 days; for Emax: read-out: MA (normalized Myotube Area, efficacy)
# Procedure: An in vitro assay for assessing the efficacy of compounds for use in treating, ameliorating, delaying, curing and/or preventing a disease or condition associated with muscle cells and/or satellite cells is described in example 78. Herein, the generation of myotubes and satellite cells after adding a compound to a myotube assay workflow is assessed. Said myotube assay workflow is derived from wild-type or DMD human induced pluripotent stem cells (WT hiPSC or DMD hiPSC). Before the addition of said compound, the assay comprises satellite-like cells, but no significant amount of myotubes.
# (§1) The efficacy of said compound for use in treating, ameliorating, delaying, curing and/or preventing a disease or condition associated with muscle cells and/or satellite cells is positively correlated with the generation of myotubes (i.e. the increase of the area occupied by myotubes on the assay) and/or satellite cells (i.e. the increase of the number of satellite cells) in the assay after adding said compound. The generation of myotubes by the addition of said compound is expressed as the EC50 value, the concentration of said compound that corresponds with the half-maximal generation of myotubes, and the MA (normalized myotube area) value, the normalized area occupied by generated myotubes on the assay. […] Since muscle cells are formed from myotubes during myogenesis, the generation of myotubes in the assay is a good indicator of the ability of said compound to induce the formation of functional muscle cells in vivo. The number of satellite cells is measured as the percentage of Pax7 positive cells, relative to the total number of cells in the assay, as shown in FIG. 3. The percentage of Pax7 is a good indicator of the ability of said compound to induce the formation of satellite cells which are able to play a role in muscle repair and regeneration in vivo.
# (§2) DMD human induced pluripotent stem cells (hereafter “DMD hiPSC”), generated from the NORM-1 hiPSC WT cell line by gene editing, or WT human induced pluripotent stem cells (hereafter “WT hiPSC”), being NORM-1 hiPSC wt cell line, have been differentiated according to Chal et al. 2015, 2016, to produce muscle progenitors (hereafter “hMP”). The hMP population contains satellite-like cells (i.e Pax7-positive cells) and satellite cells' progenies (i.e. Myogenin-positive cells).
# (§3) FIG. 1 provides an example of a Myotube assay workflow. At day 0, hMP are thawed and 3.1 million cells are plated into a T75-flask coated with hESC-qualified Matrigel™ (Corning) in SkGM proliferating medium (PromoCells), supplemented with 5 μM Y-27632 (Tocris Bioscience). On day 2, SkGM proliferating medium is refreshed. On day 4, hMP are harvested and transferred into a 384-well plate coated with collagen type I at a density of 3500 cells/well in a DMEM-based medium, containing 5% of knockout serum replacement (Gibco), 1% PenStrep (Gibco), 1% MEM NEAA (Gibco) and 0.1 mM 2-mercaptoethanol (Gibco) (hereafter “K5 medium”) and 5 μM Y-27632. Compounds to be tested are then added in the medium and incubated for 3 days at 37° C. On day 7, cells are fixed and immunostained. For example, myotubes (alpha-actinin staining) and satellite-like (Pax7 staining) cells can be analyzed for total myotube area per well or Pax7-positive cell quantification.
# (§4) DMD hMP were put in the Myotube assay according to the workflow described in Example 2.1. In particular, compound (i) was added at concentrations ranging from 1.5 nM to 30 μM, starting from day 4. hMP were cultivated for three more days in presence of compound (i), then fixed and analyzed for quantification of total myotube area per well. Duplicates of each condition were averaged.
# Qualitative scale: ++++: EC50<500 nM; +++: 500 nM≤EC50<1000 nM; ++: 1000 nM≤EC50<5000 nM; +: EC50≥5000 nM; +++: MA≥75%; ++: 50%≤MA<75%; +: 25%≤MA<50%.
# [2] = tested on: satellite-like cells (Pax7-positive cells) in hMP; experiment: Myotube assay: Pax7-positive (satellite-like) cell quantification; type: cell-based, human; set-up: key to Pax7% (pool of Pax7-positive cells) / Pax7: −: Depletes the pool of cells, while positively affects the myotubes; +: Maintains or increases the pool of cells, with at least 1 of the highest concentration known to be cytotoxic; ++: Maintains or increases the pool of cells, without any toxicity; details: myotube assay, compounds incubated 3 days
# Source text: as §1, §2, §3
# as §4, with “percentage” for “quantification”, “Pax7-positive cells and nuclei number.” for “total myotube area per well.”
# (−): Depletes the pool of cells, while positively affects the myotubes; (+): Maintains or increases the pool of cells, with at least 1 of the highest concentration known to be cytotoxic; and (++) Maintains or increases the pool of cells, without any toxicity.
"EC50 ([1]; 10 points dose-response 1.5 nM to 30 μM, read-out: EC50 (myogenic activity, half-maximal generation of myotubes))",SMILES,Emax [1],Pax7% (pool of Pax7-positive cells) [2]
,"CC(C)(C)c1cc(NC(=O)Nc2ccc(Oc3ccnc4[nH]c(=O)cnc34)cc2)n(-c2ccccc2)n1 [(s), 1-(3-(tert-butyl)-1-phenyl-1H-pyrazol-5-yl)-3-(4-((3-oxo-3,4-dihydropyrido[2,3-b]pyrazin-8-yl)oxy)phenyl)urea]",50 to 75%,+
,"O=C(Nc1ccc(Oc2ccnc3[nH]c(=O)cnc23)cc1F)Nc1c(-c2ccccc2)nn2c1CCC2 [(y), 1-(2-fluoro-4-((3-oxo-3,4-dihydropyrido[2,3-b]pyrazin-8-yl)oxy)phenyl)-3-(2-phenyl-5,6-dihydro-4H-pyrrolo[1,2-b]pyrazol-3-yl)urea]",25 to 50%,++
,"CSc1cc(Oc2ccnc3c2CCC(=O)N3)ccc1NC(=O)Nc1cc(C(C)(C)C)no1 [(cz), 1-(3-(tert-butyl)isoxazol-5-yl)-3-(2-(methylthio)-4-((7-oxo-5,6,7,8-tetrahydro-1,8-naphthyridin-4-yl)oxy)phenyl)urea]",≥ 75%,+
,"CSc1cc(Oc2ccnc(N)c2)ccc1NC(=O)Nc1cc(C(C)(C)C)nn1-c1ccccc1.Cl [(bj), 1-(4-((2-aminopyridin-4-yl)oxy)-2-(methylthio)phenyl)-3-(3-(tert-butyl)-1-phenyl-1H-pyrazol-5-yl)urea hydrochloride]",≥ 75%,++
,"CC(C)(C)c1cc(NC(=O)Nc2ccc(Oc3ccnc4[nH]c(=O)cnc34)c(OC(F)(F)F)c2)n(-c2ccccc2)n1 [(cp), 1-(3-(tert-butyl)-1-phenyl-1H-pyrazol-5-yl)-3-(4-((3-oxo-3,4-dihydropyrido[2,3-b]pyrazin-8-yl)oxy)-3-(trifluoromethoxy)phenyl)urea]",50 to 75%,+
,"CCC(C)c1cc(NC(=O)Nc2ccc(Oc3ccnc4[nH]c(=O)cnc34)cc2F)n(-c2ccccc2)n1 (stereo not shown) [(c), 1-(3-(sec-butyl)-1-phenyl-1H-pyrazol-5-yl)-3-(2-fluoro-4-((3-oxo-3,4-dihydropyrido[2,3-b]pyrazin-8-yl)oxy)phenyl)urea]",50 to 75%,+
,"CSc1cc(Oc2ccnc3[nH]c(=O)cnc23)ccc1NC(=O)Nc1cc(C(C)(C)C)nn1-c1ccccn1 [(ar), 1-(3-(tert-butyl)-1-(pyridin-2-yl)-1H-pyrazol-5-yl)-3-(2-(methylthio)-4-((3-oxo-3,4-dihydropyrido[2,3-b]pyrazin-8-yl)oxy)phenyl)urea]",≥ 75%,++
,"CSc1cc(Oc2ccnc3[nH]c(=O)cnc23)ccc1NC(=O)Nc1cc(C(C)(C)C)nn1-c1ccc(OCCN2CCCCC2)cc1 [(ce), 1-(3-(tert-butyl)-1-(4-(2-(piperidin-1-yl)ethoxy)phenyl)-1H-pyrazol-5-yl)-3-(2-(methylthio)-4-((3-oxo-3,4-dihydropyrido[2,3-b]pyrazin-8-yl)oxy)phenyl)urea]",≥ 75%,+
,"CSc1cc(Oc2ccnc(NC(=O)OC(C)(C)C)c2)ccc1NC(=O)Nc1cc(C(C)(C)C)nn1-c1ccccc1 [(bi), tert-butyl N-[4-{4-[(5-tert-butyl-2-phenyl-pyrazol-3-yl)carbamoylamino]-3-methylsulfanyl-phenoxy}-2-pyridyl]carbamate]",≥ 75%,++
,"CSc1cc(Oc2ccnc3c2CCC(=O)N3)ccc1NC(=O)Nc1ncc(C(C)(C)C)s1 [(cb), 1-(5-(tert-butyl)thiazol-2-yl)-3-(2-(methylthio)-4-((7-oxo-5,6,7,8-tetrahydro-1,8-naphthyridin-4-yl)oxy)phenyl)urea]",≥ 75%,++
,"CSc1cc(Oc2ccnc3[nH]c(=O)cnc23)ccc1NC(=O)Nc1cc(C(C)(C)C)nn1-c1ccc(C#N)cc1 [(cc), 1-(3-(tert-butyl)-1-(4-cyanophenyl)-1H-pyrazol-5-yl)-3-(2-(methylthio)-4-((3-oxo-3,4-dihydropyrido[2,3-b]pyrazin-8-yl)oxy)phenyl)urea]",≥ 75%,+
,"O=C(Nc1ccc(Oc2ccnc3[nH]c(=O)cnc23)cc1F)Nc1cc(C2(C(F)(F)F)CC2)nn1-c1ccccc1 [(d), 1-(2-fluoro-4-((3-oxo-3,4-dihydropyrido[2,3-b]pyrazin-8-yl)oxy)phenyl)-3-(1-phenyl-3-(1-(trifluoromethyl)cyclopropyl)-1H-pyrazol-5-yl)urea]",50 to 75%,+
,"CSc1cc(Oc2ccnc(NCCN(C)C)c2)ccc1NC(=O)Nc1cc(C(C)(C)C)nn1-c1ccccc1 [(ck), 1-(3-(tert-butyl)-1-phenyl-1H-pyrazol-5-yl)-3-(4-((2-((2-(dimethylamino)ethyl)amino)pyridin-4-yl)oxy)-2-(methylthio)phenyl)urea Hydrochloride]",≥ 75%,+
,"Cc1nc2c(Oc3ccc(NC(=O)Nc4cc(C(C)(C)C)nn4-c4ccccc4)c(F)c3)ccnc2c(=O)[nH]1 [(w), 1-(3-(tert-butyl)-1-phenyl-1H-pyrazol-5-yl)-3-(2-fluoro-4-((2-methyl-4-oxo-3,4-dihydropyrido[3,2-d]pyrimidin-8-yl)oxy)phenyl)urea]",50 to 75%,++
,"CSc1cc(Oc2ccnc3[nH]c(=O)cnc23)ccc1NC(=O)Nc1cc(C(C)(C)C)nn1-c1ccccc1Cl [(at), 1-(3-(tert-butyl)-1-(2-chlorophenyl)-1H-pyrazol-5-yl)-3-(2-(methylthio)-4-((3-oxo-3,4-dihydropyrido[2,3-b]pyrazin-8-yl)oxy)phenyl)urea]",≥ 75%,++
,"CC(C)Cc1cc(NC(=O)Nc2ccc(Oc3ccnc4[nH]c(=O)cnc34)cc2F)n(-c2ccccc2)n1 [(g), 1-(2-fluoro-4-((3-oxo-3,4-dihydropyrido[2,3-b]pyrazin-8-yl)oxy)phenyl)-3-(3-isobutyl-1-phenyl-1H-pyrazol-5-yl)urea]",≥ 75%,+
500 to 1000 nM,"CSc1cc(Oc2ccnc3c2CCCN3)ccc1NC(=O)Nc1cc(C(C)(C)C)nn1-c1ccccc1 [(be), 1-(3-(tert-butyl)-1-phenyl-1H-pyrazol-5-yl)-3-(2-(methylthio)-4-((5,6,7,8-tetrahydro-1,8-naphthyridin-4-yl)oxy)phenyl)urea]",≥ 75%,++
,"CC(C)(C)c1cc(NC(=O)Nc2ccc(Oc3ccnc4[nH]c(=O)cnc34)cc2C(F)(F)F)n(-c2ccccc2)n1 [(v), 1-(3-(tert-butyl)-1-phenyl-1H-pyrazol-5-yl)-3-(4-((3-oxo-3,4-dihydropyrido[2,3-b]pyrazin-8-yl)oxy)-2-(trifluoromethyl)phenyl)urea]",≥ 75%,++

# Reference: patent US20230089368A1, “POLYAROMATIC UREA DERIVATIVES AND THEIR USE IN THE TREATMENT OF MUSCLE DISEASES” (ANAGENESIS BIOTECHNOLOGIES S.A.S., priority 2019, published 2023)
